Assay [1] deals with purified F1 and membrane bound F1Fo E. coli ATP synthase (Escherichia coli, UniProt P0ABB4). Briefly: biochemical.
In assay [2] the test system is wild-type E. coli strain pBWU13.4/DK. The class given is cell-based, Escherichia coli.
The subject of assay [3] is E. coli strain pBWU13.4/DK8. The class given is cell-based, Escherichia coli.
Setting [4] is: succinate plates, limiting glucose, or LB media.

Entries after “also recorded” stand apart in the source; their conditions may differ. Read-outs that look alike come from different tables or passages of the source. Where no end group is shown, it is not given here.

In general, IC50 refers to the point on the concentration scale where inhibition reaches its midpoint. Lower therefore signals higher potency.

Sequence of purified F1 and membrane bound F1Fo E. coli ATP synthase (P0ABB4 whole entry, looked up): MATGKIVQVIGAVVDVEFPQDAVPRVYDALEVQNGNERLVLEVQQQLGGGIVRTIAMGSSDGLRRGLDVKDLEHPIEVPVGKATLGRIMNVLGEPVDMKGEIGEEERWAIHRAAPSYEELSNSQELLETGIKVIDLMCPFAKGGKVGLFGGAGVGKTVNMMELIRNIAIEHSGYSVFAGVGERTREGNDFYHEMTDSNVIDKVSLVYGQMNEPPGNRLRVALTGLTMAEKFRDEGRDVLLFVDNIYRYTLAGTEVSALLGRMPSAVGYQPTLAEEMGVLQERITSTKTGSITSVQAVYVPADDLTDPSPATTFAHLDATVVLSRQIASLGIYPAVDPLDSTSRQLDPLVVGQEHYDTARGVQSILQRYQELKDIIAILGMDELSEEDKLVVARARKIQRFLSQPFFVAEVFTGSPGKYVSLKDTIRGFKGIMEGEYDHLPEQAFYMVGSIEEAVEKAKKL

In the case of `CC[C@H](C)[C@H](NC(=O)CN)C(=O)NCC(=O)N[C@@H](C)C(=O)N[C@H](C(=O)N[C@@H](CC(C)C)C(=O)N[C@@H](CCCCN)C(=O)N[C@H](C(=O)N[C@@H](CC(C)C)C(=O)N[C@H](C(=O)N[C@H](C(=O)NCC(=O)N[C@@H](CC(C)C)C(=O)N1CCC[C@H]1C(=O)N[C@@H](C)C(=O)N[C@@H](CC(C)C)C(=O)N[C@H](C(=O)N[C@@H](CO)C(=O)N[C@@H](Cc1c[nH]c2ccccc12)C(=O)N[C@H](C(=O)N[C@@H](CCCCN)C(=O)N[C@@H](CCCNC(=N)N)C(=O)N[C@@H](CCCCN)C(=O)N[C@@H](CCCNC(=N)N)C(=O)N[C@@H](CCC(N)=O)C(=O)N[C@@H](CCC(N)=O)C(N)=O)[C@@H](C)CC)[C@@H](C)CC)[C@@H](C)O)[C@@H](C)O)C(C)C)C(C)C` [Melittin-NH2, reference compound], the half-maximal inhibitory concentration (IC50) in assay [1] is approximately 4.68 µM.
Same read-out and setting: for AIGSILGALAKGLPTLISWIKNR [MRP] the value was approximately 4.77 µM.
As to Ascaphin-8, in assay [1], the “ATPase inhibition (%)” value amounted to 59% and the “residual ATPase activity at maximal inhibition” value is ~ 41%. Further, the “growth of E. coli in presence of peptide” value in assay [2] is given as “no growth; also recorded: abrogated growth”.
Turning to “Aurein 2.2: amphibian antimicrobial peptide, Litoria aurea, 16 residues (GLFDIVKKVVGALGSL-NH2)”, in assay [1] (Leu-13 (aurein 2.2) instead of Ile-13 (aurein 2.3)), the “more inhibition of ATPase than aurein 2.3” value was ~ 40%. The “Growth yield on limiting glucose (%)” value in assay [3] was 12%. Also, the “growth of E. coli in presence of peptide” value in assay [2] (setting [4]) was “no growth; also recorded: abrogated growth”.
For the compound “Aurein 2.3: amphibian antimicrobial peptide, Litoria aurea, 16 residues (GLFDIVKKVVGAIGSL-NH2)”, in assay [3], the “Growth yield on limiting glucose (%)” value was determined as 24%. In assay [2] (setting [4]), the “growth of E. coli in presence of peptide” value was “no growth; also recorded: abrogated growth”.
In the case of “Caerin 1.8: amphibian antimicrobial peptide, Litoria chloris, 24 residues (GLFKVLGSVAKHLLPHVVPVIAEK)”, the “Growth yield on limiting glucose (%)” value in assay [3] was determined as 99%. Further, in assay [2] (succinate plates, limiting glucose, or LB media, listed as carein 1.8), the “growth of E. coli in presence of peptide” value is given as “did not affect growth”.
Regarding Caerin 1.9, in assay [1], the “ATPase inhibition (%)” value stood at 52% and the “maximal inhibition of ATPase activity” value is given as ~ 52%.
Citropin 1.1: in assay [1], the “ATPase inhibition (%)” value is given as 57% and the “residual ATPase activity at maximal inhibition” value was ~ 43%. Also, in assay [2], the “growth of E. coli in presence of peptide” value was “no growth; also recorded: abrogated growth”.
Consider Dermaseptin, for which, in assay [1], the “ATPase inhibition (%)” value was found to be 26% and the “residual ATPase activity at maximal inhibition” value is recorded as ~ 74%. Further, in assay [2], the “growth of E. coli in presence of peptide” value is recorded as “no growth; also recorded: abrogated growth”.
On to Magainin II, for which, in assay [1], the “ATPase inhibition (%)” value came to 20% and the “maximal inhibition of ATPase activity” value is ~ 20%. The “growth of E. coli in presence of peptide” value in assay [2] was “did not affect growth”.
In the case of “XT-7: amphibian antimicrobial peptide, Xenopus tropicalis, 18 residues (GLLGPLLKIAAKVGSNLL)”, the “Growth yield on limiting glucose (%)” value in assay [3] turned out to be 89%. Further, the “growth of E. coli in presence of peptide” value in assay [2] (setting [4]) is recorded as “did not affect growth”.
